From publication PMC9555310, “Novel inhibitors and activity-based probes targeting serine proteases” (Frontiers in Chemistry, 2022)

How the values were obtained:
trypsin = target: T1, trypsin (Sus scrofa, UniProt P00761); assay: Activity-based profiling of trypsin (SDS-PAGE, streptavidin-HRP western blot); assay type: binding, porcine; conditions: added 30 min prior to NAP830
T1 construct: purchased Sigma-Aldrich; host or cells: porcine pancreas
Experimental: Samples of recombinant protease (trypsin, plasmin, thrombin, chymotrypsin, or HNE, as indicated in the relevant figure legends) were treated with each of the newly synthesized compounds at a concentration of 50 μM, for 30 min, at 37°C. A control sample (no ABP) was prepared by treating the recombinant protease with solvent vehicle (DMF) only, used to prepare the stock solution of each ABP. Samples were also pre-treated (±90°C for 30 min) before being incubated with each putative ABP. With trypsin and thrombin, further samples were prepared where Z-Arg^P-(OPh)2 or NAP559, respectively, was added 30 min prior to the addition of the ABP under examination. All treated samples were then denatured with SDS containing reducing treatment buffer (10 min at 95°C), followed by resolution by SDS-PAGE and subjected to Western blotting. Resolved proteins were then transferred onto the nitrocellulose membrane and labeled with streptavidin-HRP. […]
Following transfer, the extra protein binding sites on the membrane were blocked by addition of 3% (w/v) BSA in TBST (20 mM Tris, 137 mM NaCl, 1% (v/v) Tween 20, pH 7.6) and agitated gently at room temperature for 30 minutes. The biotin-labelled proteases were then detected by addition of Streptavidin-HRP (Vector Laboratories) in 3% (w/v) BSA in TBST at a concentration of 1:20000, for 1 hour at room temperature. […]

neutrophil elastase (NE) = target: T2, neutrophil elastase (NE) (Homo sapiens, UniProt P08246); design: method as in Gilmore et al. (2009); conditions: ref Gilmore et al. (2009); cited from earlier work
T2 construct: purchased Calbiochem
T2 sequence (P08246 30-267): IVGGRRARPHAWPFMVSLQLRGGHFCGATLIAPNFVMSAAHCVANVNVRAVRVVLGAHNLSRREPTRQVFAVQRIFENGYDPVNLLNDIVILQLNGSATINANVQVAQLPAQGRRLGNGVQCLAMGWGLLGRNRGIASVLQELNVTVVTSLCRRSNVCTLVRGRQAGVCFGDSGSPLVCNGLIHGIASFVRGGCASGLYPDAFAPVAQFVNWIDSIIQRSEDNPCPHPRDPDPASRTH

T1 sequence (P00761 9-231): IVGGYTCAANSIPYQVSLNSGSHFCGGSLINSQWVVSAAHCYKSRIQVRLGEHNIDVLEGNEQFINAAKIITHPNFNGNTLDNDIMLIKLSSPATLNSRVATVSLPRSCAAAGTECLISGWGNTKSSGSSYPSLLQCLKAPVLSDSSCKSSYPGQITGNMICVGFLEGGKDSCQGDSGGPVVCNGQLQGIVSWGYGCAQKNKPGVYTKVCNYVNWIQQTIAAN

Row | Compound | effect of pre-treatment of trypsin on signal detected by NAP830 (trypsin) | k 3 / K i (neutrophil elastase (NE)) [M⁻¹ s⁻¹]
1 | NC(N)=NCCCC(NC(=O)OCc1ccccc1)P(=O)(Oc1ccccc1)Oc1ccccc1 (centres unmarked) [Z-Arg^P-(OPh)2, reference compound] | quenching/diminution in the signal detected by NAP830 | –
2 | biotin-PEG-succinyl-Val^P-(OPh)2 [QUBEL1] | – | 215
